Laboratory results from patent US6319929A, “Suksdorfin analogs, compositions thereof, and methods for making and using thereof” (priority 1998, dated 2001).

How the values were obtained:
[1] = system: HIV-1 replication in H9 cells; assay: HIV-1 replication inhibition in acutely infected H9 lymphocytes (p24 antigen ELISA); format: cell-based, HIV-1 (IIIB strain)
Summary of the method: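 H9 T cells exposed to HIV-1 IIIB (0.01-0.1 TCID50/cell) for 1 h at 37° C, washed, then grown with compound for 3-4 days at 37° C. Toxicity taken from cell counts of uninfected cultures and virus from p24 ELISA of supernatants. EC50 and IC50 were read graphically from concentration versus percent inhibition plots.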

[2] = system: chronically HIV-1 infected U1 cells; assay: Virus expression from chronically HIV-1 infected monocytic cell line U1 (p24 antigen ELISA); format: cell-based
Method: (§1) Effects of suksdorfin analogs on Chronically HIV-1 infected cells. The experimental design is as follows: The phorbol ester, PMA (10^-8 M) and various concentrations of suksdorfin were either added or not added to both the chronically HIV-1 infected T cell line (ACH-2) and to the chronically HIV-1 infected monocytic cell line (U1). Cell-free supernatant was collected 72 hours post culture for p24 antigen ELISA.
Compound 16 was also assayed on ACH-2 (chronically HIV-1 infected T cell line). U1 cells are also chronically HIV-1 infected cells but they are from the monocytic cell line, U937. The data presented in Table 8 indicates the following points:
(§2) Chronically HIV-1 infected cell lines. HIV-1 chronically infected T cell line, ACH-2^12, and HIV-1 chronically infected promonocytic cell line, U1 13, were continuously maintained in RPMI 1640 with 10% fetal calf serum (FCS). For experiments, the cell lines were only used in the […] of growth. Cells (0.5×10^6 cells/well) and either various concentrations of suksdorfin or medium alone were added to 24-well plates in the presence or absence of PMA (10^-8 M). After 72 hours at 37° C. and 5% CO2, an aliquot of the cell-free supernatants were collected and analyzed for p24 antigen by ELISA (see below for details of p24 antigen ELISA).

[3] = system: chronically HIV-1 infected ACH-2 cells; assay: Virus expression from chronically HIV-1 infected T cell line ACH-2 (p24 antigen ELISA); format: cell-based; conditions: Table 11 (ACH-2)
Method: as §1
Results (Table 11) from adding compound 16 to the chronically HIV-infected T cell line, ACH-2, according to methods in above examples. ACH-2 are a chronically HIV-1 infected T cell line. It was derived from A3.01 cells which is a subclone of the CEM cell line. The data below indicates the following points:
as §2

Cc1cn([C@H]2C[C@H](N=[N+]=[N-])[C@@H](CO)O2)c(=O)[nH]c1=O [AZT, azidothymidine, reference compound]
EC50 ([1]; Human immunodeficiency virus 1, H9, Table 3, H9 lymphocytes): 40 nM | EC50 ([1]; Human immunodeficiency virus 1, H9, Table 17, acutely infected H9 lymphocytes): 150 nM | Therapeutic Index ([1]; Table 3, H9 lymphocytes): 50,000 | Therapeutic Index ([1]; Table 17, H9): 12,500 | P24 ([2]; U1, +PMA, 0.01 μg/ml): 9626 pg/mL | P24 ([2]; U1, +PMA, 0.1 μg/ml): 4363 pg/mL | P24 ([2]; U1, +PMA, 1 μg/ml): 7898 pg/mL | P24 ([2]; U1, +PMA, 10 μg/ml): 8653 pg/mL | P24 ([2]; U1, -PMA, 0.01 μg/ml): 50 pg/mL | P24 ([2]; U1, -PMA, 0.1 μg/ml): 53 pg/mL | P24 ([2]; U1, -PMA, 1 μg/ml): 72 pg/mL | P24 ([2]; U1, -PMA, 10 μg/ml): 97 pg/mL | P24 ([3]; +PMA, 0.01 μg/ml): 21,373 pg/ml | P24 ([3]; +PMA, 0.1 μg/ml): 10,621 pg/ml | P24 ([3]; +PMA, 1 μg/ml): 17,088 pg/ml | P24 ([3]; +PMA, 10 μg/ml): 16,584 pg/ml | P24 ([3]; -PMA, 0.01 μg/ml): 796 pg/mL | P24 ([3]; -PMA, 0.1 μg/ml): 942 pg/mL | P24 ([3]; -PMA, 1 μg/ml): 904 pg/mL | P24 ([3]; -PMA, 10 μg/ml): 939 pg/mL
